Assay results: the supplement of paper PMC10307832

Columns and labels:
Assay in all cases: relative viability (nuclei count vs DMSO), 5 days (fraction); higher = more cells survive
[1] = compound: COc1cc2nc(N3CCCN(C)CC3)nc(NC3CCN(Cc4ccccc4)CC3)c2cc1OC + CS(=O)(=O)CCNCc1ccc(-c2ccc3ncnc(Nc4ccc(OCc5cccc(F)c5)c(Cl)c4)c3c2)o1 [Lapatinib] (partner 2 µM)
Outline: (§1)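 Relative viability equals treated-well nuclei counts divided by vehicle-well nuclei counts. Counts came from 4× images of lung cancer cell lines grown in 1536-well plates for 5 days after pin-tool dosing on the day after seeding. Dosing used one drug alone or a fixed anchor-drug dose plus five library-drug doses (not always all listed) in √10 steps, and values are medians of duplicate plates.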

[2] = compound: Cc1cc([C@@H](C)Nc2ccccc2C(=O)O)c2nc(N3CCOCC3)cc(=O)n2c1 [AZD6482] + Cc1cc(Nc2cc(N3CCN(C)CC3)nc(Sc3ccc(NC(=O)C4CC4)cc3)n2)n[nH]1 [Tozasertib] (partner 0.1 µM)
Outline: as §1

[3] = compound: Cc1cc([C@@H](C)Nc2ccccc2C(=O)O)c2nc(N3CCOCC3)cc(=O)n2c1 [AZD6482] + O=C(c1cc(Cc2n[nH]c(=O)c3ccccc23)ccc1F)N1CCN(C(=O)C2CC2)CC1 [Olaparib] (partner 8 µM)
Outline: as §1

[4] = compound: Cc1cc([C@@H](C)Nc2ccccc2C(=O)O)c2nc(N3CCOCC3)cc(=O)n2c1 [AZD6482] + Cc1nc(NC(=O)N2CCC[C@H]2C(N)=O)sc1-c1ccnc(C(C)(C)C(F)(F)F)c1 [Alpelisib] (partner 2 µM)
Outline: as §1

Work on HCC-78 yielded a relative viability ([1]; first compound 0.2 µM) of 0.704, a relative viability ([1]; first compound 0.6325 µM) of 1.06 and a relative viability ([1]; first compound 2 µM) of 1.03. For the same cell line, the relative viability ([1]; first compound 6.325 µM) was 0.882, the relative viability ([2]; first compound 0.08 µM) was 0.327 and the relative viability ([2]; first compound 0.253 µM) was 0.335. For the same cell line, the relative viability ([2]; first compound 0.8 µM) was 0.271, the relative viability ([2]; first compound 2.53 µM) was 0.317 and the relative viability ([2]; first compound 8 µM) was 0.227. For the same cell line, the relative viability ([3]; first compound 0.08 µM) was 0.663, the relative viability ([3]; first compound 0.253 µM) was 0.641 and the relative viability ([3]; first compound 0.8 µM) was 0.533. For the same cell line, the relative viability ([3]; first compound 2.53 µM) was 0.383, the relative viability ([3]; first compound 8 µM) was 0.416 and the relative viability ([4]; first compound 0.08 µM) was 0.222. For the same cell line, the relative viability ([4]; first compound 0.253 µM) was 0.179, the relative viability ([4]; first compound 0.8 µM) was 0.212 and the relative viability ([4]; first compound 2.53 µM) was 0.159. It also gave a relative viability ([4]; first compound 8 µM) of 0.194.

HCC-366 gave a relative viability ([1]; first compound 0.2 µM) of 1.02, a relative viability ([1]; first compound 0.6325 µM) of 1.03 and a relative viability ([1]; first compound 2 µM) of 1.12. It also gave a relative viability ([1]; first compound 6.325 µM) of 0.956, a relative viability ([2]; first compound 0.08 µM) of 0.108 and a relative viability ([2]; first compound 0.253 µM) of 0.0944. It also gave a relative viability ([2]; first compound 0.8 µM) of 0.0731, a relative viability ([2]; first compound 2.53 µM) of 0.12 and a relative viability ([2]; first compound 8 µM) of 0.063. It also gave a relative viability ([3]; first compound 0.08 µM) of 0.328, a relative viability ([3]; first compound 0.253 µM) of 0.342 and a relative viability ([3]; first compound 0.8 µM) of 0.433. It also gave a relative viability ([3]; first compound 2.53 µM) of 0.259, a relative viability ([3]; first compound 8 µM) of 0.282 and a relative viability ([4]; first compound 0.08 µM) of 0.171. It also gave a relative viability ([4]; first compound 0.253 µM) of 0.165, a relative viability ([4]; first compound 0.8 µM) of 0.208 and a relative viability ([4]; first compound 2.53 µM) of 0.105. It also gave a relative viability ([4]; first compound 8 µM) of 0.188.

For HCC-827, the relative viability ([1]; first compound 0.2 µM) was 0.181, the relative viability ([1]; first compound 0.6325 µM) was 0.196 and the relative viability ([1]; first compound 2 µM) was 0.198. For the same cell line, the relative viability ([1]; first compound 6.325 µM) was 0.193, the relative viability ([2]; first compound 0.08 µM) was 0.379 and the relative viability ([2]; first compound 0.253 µM) was 0.405. It also gave a relative viability ([2]; first compound 0.8 µM) of 0.422, a relative viability ([2]; first compound 2.53 µM) of 0.342 and a relative viability ([2]; first compound 8 µM) of 0.287. It also gave a relative viability ([3]; first compound 0.08 µM) of 0.653, a relative viability ([3]; first compound 0.253 µM) of 0.594 and a relative viability ([3]; first compound 0.8 µM) of 0.515. The relative viability ([3]; first compound 2.53 µM) was 0.432, the relative viability ([3]; first compound 8 µM) was 0.996 and the relative viability ([4]; first compound 0.08 µM) was 0.613. For the same cell line, the relative viability ([4]; first compound 0.253 µM) was 0.506, the relative viability ([4]; first compound 0.8 µM) was 0.456 and the relative viability ([4]; first compound 2.53 µM) was 0.33. It also gave a relative viability ([4]; first compound 8 µM) of 0.351.

Cell Line HOP-62 has a relative viability ([1]; first compound 0.2 µM) of 1.04, a relative viability ([1]; first compound 0.6325 µM) of 1.05 and a relative viability ([1]; first compound 2 µM) of 1.07. The relative viability ([1]; first compound 6.325 µM) was 1, the relative viability ([2]; first compound 0.08 µM) was 0.374 and the relative viability ([2]; first compound 0.253 µM) was 0.382. For the same cell line, the relative viability ([2]; first compound 0.8 µM) was 0.311, the relative viability ([2]; first compound 2.53 µM) was 0.363 and the relative viability ([2]; first compound 8 µM) was 0.332. It also gave a relative viability ([3]; first compound 0.08 µM) of 0.444, a relative viability ([3]; first compound 0.253 µM) of 0.539 and a relative viability ([3]; first compound 0.8 µM) of 0.453. It also gave a relative viability ([3]; first compound 2.53 µM) of 0.459, a relative viability ([3]; first compound 8 µM) of 0.552 and a relative viability ([4]; first compound 0.08 µM) of 1. It also gave a relative viability ([4]; first compound 0.253 µM) of 0.959, a relative viability ([4]; first compound 0.8 µM) of 1.19 and a relative viability ([4]; first compound 2.53 µM) of 0.531. For the same cell line, the relative viability ([4]; first compound 8 µM) was 0.903.

In the case of IA-LM, the relative viability ([1]; first compound 0.6325 µM) is reported as 0.888, the relative viability ([1]; first compound 2 µM) is reported as 1.03 and the relative viability ([1]; first compound 6.325 µM) is reported as 0.669. It also gave a relative viability ([3]; first compound 0.08 µM) of 0.982, a relative viability ([3]; first compound 0.253 µM) of 0.995 and a relative viability ([3]; first compound 0.8 µM) of 1.15. For the same cell line, the relative viability ([3]; first compound 8 µM) was 0.759, the relative viability ([4]; first compound 0.08 µM) was 0.638 and the relative viability ([4]; first compound 0.253 µM) was 0.585. It also gave a relative viability ([4]; first compound 0.8 µM) of 0.631, a relative viability ([4]; first compound 2.53 µM) of 0.313 and a relative viability ([4]; first compound 8 µM) of 0.809.

Work on LC-2-ad yielded a relative viability ([1]; first compound 0.2 µM) of 0.853, a relative viability ([1]; first compound 0.6325 µM) of 0.992 and a relative viability ([1]; first compound 2 µM) of 1.01. The relative viability ([1]; first compound 6.325 µM) was 0.898, the relative viability ([2]; first compound 0.08 µM) was 0.392 and the relative viability ([2]; first compound 0.253 µM) was 0.428. For the same cell line, the relative viability ([2]; first compound 0.8 µM) was 0.452, the relative viability ([2]; first compound 2.53 µM) was 0.5 and the relative viability ([2]; first compound 8 µM) was 0.379. It also gave a relative viability ([3]; first compound 0.08 µM) of 0.727, a relative viability ([3]; first compound 0.253 µM) of 0.735 and a relative viability ([3]; first compound 0.8 µM) of 0.795. It also gave a relative viability ([3]; first compound 2.53 µM) of 0.64, a relative viability ([3]; first compound 8 µM) of 0.803 and a relative viability ([4]; first compound 0.08 µM) of 0.704. It also gave a relative viability ([4]; first compound 0.253 µM) of 0.597, a relative viability ([4]; first compound 0.8 µM) of 0.668 and a relative viability ([4]; first compound 2.53 µM) of 0.467. It also gave a relative viability ([4]; first compound 8 µM) of 0.507.

LCLC-97TM1 showed a relative viability ([1]; first compound 0.2 µM) of 0.875, a relative viability ([1]; first compound 2 µM) of 1.17 and a relative viability ([1]; first compound 6.325 µM) of 0.836. The relative viability ([2]; first compound 0.08 µM) was 0.206, the relative viability ([2]; first compound 0.253 µM) was 0.208 and the relative viability ([2]; first compound 0.8 µM) was 0.168. It also gave a relative viability ([2]; first compound 2.53 µM) of 0.158, a relative viability ([2]; first compound 8 µM) of 0.128 and a relative viability ([3]; first compound 0.08 µM) of 0.403. For the same cell line, the relative viability ([3]; first compound 0.253 µM) was 0.285, the relative viability ([3]; first compound 0.8 µM) was 0.413 and the relative viability ([3]; first compound 8 µM) was 0.244. It also gave a relative viability ([4]; first compound 0.08 µM) of 0.274, a relative viability ([4]; first compound 0.253 µM) of 0.19 and a relative viability ([4]; first compound 0.8 µM) of 0.238. The relative viability ([4]; first compound 2.53 µM) was 0.187 and the relative viability ([4]; first compound 8 µM) was 0.204.

Work on LCLC-103H yielded a relative viability ([2]; first compound 0.08 µM) of 0.486, a relative viability ([2]; first compound 0.253 µM) of 0.456 and a relative viability ([2]; first compound 0.8 µM) of 0.472. The relative viability ([2]; first compound 2.53 µM) was 0.412, the relative viability ([2]; first compound 8 µM) was 0.303 and the relative viability ([3]; first compound 0.08 µM) was 0.677. For the same cell line, the relative viability ([3]; first compound 0.253 µM) was 0.745, the relative viability ([3]; first compound 0.8 µM) was 0.648 and the relative viability ([3]; first compound 2.53 µM) was 0.543. It also gave a relative viability ([3]; first compound 8 µM) of 0.569, a relative viability ([4]; first compound 0.08 µM) of 0.877 and a relative viability ([4]; first compound 0.253 µM) of 0.747. The relative viability ([4]; first compound 0.8 µM) was 0.701, the relative viability ([4]; first compound 2.53 µM) was 0.605 and the relative viability ([4]; first compound 8 µM) was 0.553.

Cell Line LK-2 has a relative viability ([1]; first compound 0.2 µM) of 0.983, a relative viability ([1]; first compound 0.6325 µM) of 0.996 and a relative viability ([1]; first compound 2 µM) of 1.14. It also gave a relative viability ([1]; first compound 6.325 µM) of 0.909, a relative viability ([2]; first compound 0.08 µM) of 0.142 and a relative viability ([2]; first compound 0.253 µM) of 0.162. The relative viability ([2]; first compound 0.8 µM) was 0.15, the relative viability ([2]; first compound 2.53 µM) was 0.182 and the relative viability ([2]; first compound 8 µM) was 0.168. For the same cell line, the relative viability ([3]; first compound 0.08 µM) was 0.916, the relative viability ([3]; first compound 0.253 µM) was 0.731 and the relative viability ([3]; first compound 0.8 µM) was 0.581. For the same cell line, the relative viability ([3]; first compound 2.53 µM) was 0.73, the relative viability ([3]; first compound 8 µM) was 0.432 and the relative viability ([4]; first compound 0.08 µM) was 1.07. It also gave a relative viability ([4]; first compound 0.8 µM) of 1.86, a relative viability ([4]; first compound 2.53 µM) of 0.972 and a relative viability ([4]; first compound 8 µM) of 1.21.
